In PubChem BioAssay (NCI):
“And” between values parts separate entries of the source, which are not always exact repeats. Identical values can stand only once.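 Grown in 96-well plates, cells were treated for 48 hours with each compound at five concentrations. Insufficient inhibition: endpoint recorded as highest concentration tested. GI50 = concentration required for 50% inhibition of growth. TGI marks complete inhibition of growth.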

Columns and labels:
Experiment in all cases: growth of human tumour cells (NCI), 48 h; in the data active = GI50 below about 0.43 µM; inactive = the rest
OVCAR-3 ovarian = tested on: OVCAR-3 ovarian
MALME-3M melanoma = tested on: MALME-3M melanoma
SNB-19 CNS = tested on: SNB-19 CNS
HOP-92 NSCLC = tested on: HOP-92 NSCLC
K-562 leukemia = tested on: K-562 leukemia
HL-60(TB) leukemia = tested on: HL-60(TB) leukemia
UO-31 renal = tested on: UO-31 renal
UACC-257 melanoma = tested on: UACC-257 melanoma
NCI/ADR-RES ovarian = tested on: NCI/ADR-RES ovarian
BT-549 breast = tested on: BT-549 breast

Cc1nnn[n-]1.N.N.N.N.N.[Cl-].[Co+3]
inactive: GI50 (OVCAR-3 ovarian) > 100 µM | GI50 (MALME-3M melanoma) > 100 µM | GI50 (SNB-19 CNS) > 100 µM | GI50 (HOP-92 NSCLC) > 100 µM | GI50 (K-562 leukemia) > 100 µM | GI50 (HL-60(TB) leukemia) > 100 µM | GI50 (UO-31 renal) > 100 µM | GI50 (UACC-257 melanoma) > 100 µM
> 100 µM: TGI (OVCAR-3 ovarian) | TGI (MALME-3M melanoma) | TGI (SNB-19 CNS) | TGI (HOP-92 NSCLC) | TGI (K-562 leukemia) | TGI (HL-60(TB) leukemia) | TGI (UO-31 renal) | TGI (UACC-257 melanoma)

O=C1C(Cl)=C(Nc2cccc(F)c2)C(=O)N1Cc1ccc(Cl)cc1
20.8 µM: TGI (UACC-257 melanoma)
35.9 µM: TGI (UO-31 renal)
inactive: GI50 (OVCAR-3 ovarian) 1.19 µM | GI50 (MALME-3M melanoma) 1.42 µM | GI50 (SNB-19 CNS) 2.57 µM | GI50 (HOP-92 NSCLC) 11.4 µM | GI50 (BT-549 breast) 0.841 µM | GI50 (UO-31 renal) 3.69 µM | GI50 (UACC-257 melanoma) 3.95 µM
10.8 µM: TGI (MALME-3M melanoma)
6.84 µM: TGI (OVCAR-3 ovarian)
26.2 µM: TGI (HOP-92 NSCLC)
16.1 µM: TGI (SNB-19 CNS)
13.4 µM: TGI (BT-549 breast)
active: GI50 (NCI/ADR-RES ovarian) 0.426 µM | GI50 (K-562 leukemia) 0.206 µM
> 32.1 µM: TGI (K-562 leukemia)
5.61 µM: TGI (NCI/ADR-RES ovarian)

COC(=O)c1ccc(-c2nc3cc(Cl)c(Cl)cc3nc2C#N)cc1
inactive: GI50 (NCI/ADR-RES ovarian) > 100 µM | GI50 (OVCAR-3 ovarian) > 100 µM | GI50 (MALME-3M melanoma) > 100 µM | GI50 (SNB-19 CNS) > 100 µM | GI50 (HOP-92 NSCLC) 79 µM | GI50 (K-562 leukemia) > 100 µM | GI50 (BT-549 breast) > 100 µM | GI50 (UO-31 renal) > 100 µM | GI50 (UACC-257 melanoma) > 100 µM
> 100 µM: TGI (NCI/ADR-RES ovarian) | TGI (OVCAR-3 ovarian) | TGI (MALME-3M melanoma) | TGI (SNB-19 CNS) | TGI (HOP-92 NSCLC) | TGI (K-562 leukemia) | TGI (BT-549 breast) | TGI (UO-31 renal) | TGI (UACC-257 melanoma)

CN(O)C(=O)SCC(NC(=O)CCC(N)C(=O)O)C(=O)NCC(=O)O (centres undefined)
inactive: GI50 (OVCAR-3 ovarian) > 2000 µM | GI50 (MALME-3M melanoma) > 2000 µM | GI50 (SNB-19 CNS) > 2000 µM | GI50 (HOP-92 NSCLC) > 2000 µM | GI50 (K-562 leukemia) > 2 µM and 812 µM | GI50 (HL-60(TB) leukemia) > 2 µM and 1200 µM | GI50 (UO-31 renal) > 2000 µM | GI50 (UACC-257 melanoma) > 2000 µM
> 2000 µM: TGI (OVCAR-3 ovarian) | TGI (MALME-3M melanoma) | TGI (SNB-19 CNS) | TGI (HOP-92 NSCLC) | TGI (K-562 leukemia) | TGI (HL-60(TB) leukemia) | TGI (UO-31 renal) | TGI (UACC-257 melanoma)

CCOC(=O)C12CCCC1(O)N(NC(=O)OC(C)(C)C)C(C)=C2C(=O)OC (centres undefined)
> 100 µM: TGI (OVCAR-3 ovarian) | TGI (MALME-3M melanoma) | TGI (SNB-19 CNS) | TGI (HOP-92 NSCLC) | TGI (K-562 leukemia) | TGI (HL-60(TB) leukemia) | TGI (UO-31 renal) | TGI (UACC-257 melanoma)

COC1=C(N)C(=O)c2nc(C)ccc2C1=O
3.65 µM: TGI (OVCAR-3 ovarian)
3.83 µM: TGI (SNB-19 CNS)
3.18 µM: TGI (MALME-3M melanoma)
4 µM: TGI (UO-31 renal)
> 22.5 µM: TGI (K-562 leukemia)
> 26.9 µM: TGI (HL-60(TB) leukemia)
22.1 µM: TGI (HOP-92 NSCLC)
2.78 µM: TGI (UACC-257 melanoma)

CC1(C)O[C@H]2[C@H](O)C[C@](O)(CO)C[C@H]2O1
> 100 µM: TGI (OVCAR-3 ovarian) | TGI (MALME-3M melanoma) | TGI (SNB-19 CNS) | TGI (HOP-92 NSCLC) | TGI (K-562 leukemia) | TGI (UO-31 renal) | TGI (UACC-257 melanoma)

COc1ccc(C(=S)N2CCN(c3cccc(C)c3)CC2)cc1OC
5.16 µM: TGI (OVCAR-3 ovarian)
inactive: GI50 (OVCAR-3 ovarian) 2.06 µM | GI50 (MALME-3M melanoma) 3.34 µM | GI50 (SNB-19 CNS) 6.61 µM | GI50 (HOP-92 NSCLC) 10.5 µM | GI50 (K-562 leukemia) 1.2 µM | GI50 (BT-549 breast) 6.31 µM | GI50 (HL-60(TB) leukemia) 1.83 µM | GI50 (UO-31 renal) 4.37 µM | GI50 (UACC-257 melanoma) 55.4 µM
> 100 µM: TGI (SNB-19 CNS) | TGI (K-562 leukemia) | TGI (BT-549 breast) | TGI (HL-60(TB) leukemia) | TGI (UO-31 renal) | TGI (UACC-257 melanoma)
91.4 µM: TGI (HOP-92 NSCLC)
84.4 µM: TGI (MALME-3M melanoma)
